Biological target: T1, McTPS1 (Magnolia champaca, UniProt A0A1Y0BW36)
T1 construct: gene TPS1; full-length ORF (plastid transit peptide apparently kept), N-terminal 6His tag (pDEST17), E. coli BL21 pLysS, Ni-NTA purified
T1 sequence (A0A1Y0BW36 1-581): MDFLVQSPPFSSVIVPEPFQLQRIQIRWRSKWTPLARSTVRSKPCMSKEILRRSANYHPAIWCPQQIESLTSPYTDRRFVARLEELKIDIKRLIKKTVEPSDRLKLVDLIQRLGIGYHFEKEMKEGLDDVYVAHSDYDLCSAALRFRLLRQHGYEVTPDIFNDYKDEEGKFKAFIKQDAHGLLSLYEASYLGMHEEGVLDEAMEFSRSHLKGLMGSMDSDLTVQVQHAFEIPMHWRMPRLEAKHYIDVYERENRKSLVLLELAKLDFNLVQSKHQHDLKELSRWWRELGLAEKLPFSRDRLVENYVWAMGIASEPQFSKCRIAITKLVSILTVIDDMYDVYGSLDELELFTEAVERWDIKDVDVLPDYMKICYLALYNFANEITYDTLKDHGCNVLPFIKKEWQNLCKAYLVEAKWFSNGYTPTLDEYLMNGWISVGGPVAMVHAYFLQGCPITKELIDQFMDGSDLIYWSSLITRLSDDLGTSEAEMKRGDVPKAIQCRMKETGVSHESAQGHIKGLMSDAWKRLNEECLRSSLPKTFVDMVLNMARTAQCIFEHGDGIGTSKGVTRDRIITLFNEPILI
Experiment: in vitro TPS assay, chiral phase GC-MS
Format: biochemical
Settings: 25 mM HEPES pH 7.4, 100 mM KCl, 7.5 mM MgCl2, 5 mM DTT (1X of the 2X buffer), 30 °C, 2 h

Compound | in vitro TPS assay, chiral phase GC-MS (from GPP) | in vitro TPS assay, chiral phase GC-MS
C=C[C@](C)(O)CCC=C(C)C [(R)-linalool] | our in vitro assays identified McTPS1 as the (R)-linalool synthase | 
CC(C)=CCC/C(C)=C/COP(=O)(O)OP(=O)(O)O [geranyl diphosphate] |  | McTPS1 reacted with GPP to produce (R)-linalool, a monoterpene alcohol
